pIC50: −log10 of the molar value. Where only a bound is given, the exact number is not on record here.

In one assay the target is T1, recombinant human serotonin receptor 5-HT2A (Homo sapiens, UniProt P28223).
T1 construct: expressed in transfected cells; method B: loaded with Ca2+ dye
T1 sequence (P28223 whole entry): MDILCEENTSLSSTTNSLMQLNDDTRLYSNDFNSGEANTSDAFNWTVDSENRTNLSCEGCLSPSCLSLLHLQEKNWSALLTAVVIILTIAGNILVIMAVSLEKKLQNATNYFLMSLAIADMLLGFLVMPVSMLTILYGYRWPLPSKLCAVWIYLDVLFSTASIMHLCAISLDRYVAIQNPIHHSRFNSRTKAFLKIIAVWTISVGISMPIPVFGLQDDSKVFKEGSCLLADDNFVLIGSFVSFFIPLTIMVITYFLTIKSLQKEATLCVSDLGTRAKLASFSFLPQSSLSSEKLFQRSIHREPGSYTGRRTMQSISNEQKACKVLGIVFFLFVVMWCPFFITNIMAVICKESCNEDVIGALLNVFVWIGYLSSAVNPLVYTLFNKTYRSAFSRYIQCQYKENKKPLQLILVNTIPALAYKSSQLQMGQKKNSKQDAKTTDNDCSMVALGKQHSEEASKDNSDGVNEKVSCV
Description: 5-HT2A antagonist Ca2+ assay in CHO-K1 cells (method A aequorin luminescence / method B FLIPR fluorescence). It is filed as cell-based. As to conditions: 5HT2A IC50, μM, antagonist mode vs EC80 of reference agonist, method A or B. An excerpt:
The methods utilized to assess the inhibitory activity of compounds on recombinant human serotonin receptor 5-HT2A was based upon previously published approaches [Jerman J C, Brough S J, Gager T, Wood M, Coldwell M C, Smart D, Middlemiss D N. Pharmacological characterisation of human 5-HT2 receptor subtypes. European Journal of Pharmacology 2001 Feb. 23; 414(1):23-30; Le Poul E, Hisada S, Mizuguchi Y, Dupriez V J, Burgeon E, Detheux M. Adaptation of aequorin functional assay to high throughput screening. J Biomolecular Screening 2002 February; 7(1):57-65.] The 5-HT2A receptor signals through Gq-phospholipase signaling cascade, which leads to a transient increase in free intracellular […] concentration. Both 5-HT2A assay methods rely upon monitoring these changes in Ca^2+ concentration.
In method A [Le Poul E, Hisada S, Mizuguchi Y, Dupriez V J, Burgeon E, Detheux M. (2002)], CHO-K1 cells engineered to stably co-express both recombinant human 5-HT2A and mitochondrial apoaequorin are used. […] For agonist testing, 50 microliters of cell suspension is mixed with 50 microliters of a solution containing test compound or reference agonist in a 96-well standard geometry microtiter plate. The resulting emission of light was recorded using a Hamamatsu Functional Drug Screening System 6000 (FDSS 6000) luminometer. For antagonist testing, 100 microliters of the solution of reference agonist (to yield an agonist concentration, EC80, sufficient to cause the cells to generate an 80% maximal luminescence response in the absence of any antagonist) is injected into the mix of cells and test compound, 15 minutes after the first injection. The resulting emission of light is recorded using Hamamatsu FDSS 6000 luminometer. IC50 values are calculated (from compound concentration dependent inhibition of agonist-induced 5-HT2A-dependent light emission) by non-linear least squares regression of the data (percent inhibition) onto equation (1) above.
In method B [Jerman J C, Brough S J, Gager T, Wood M, Coldwell M C, Smart D, Middlemiss D N. (2001)], CHO-K1 cells which had been engineered to stably co-express recombinant human 5-HT2A are used in assay done similarly to method A. In method B, the cells are loaded with a fluorogenic Ca^2+ indicator dye by pre-incubation. Addition of the reference agonist serotonin causes a transient increase in fluorescence in a suspension of the loaded cells, which can be detected using the Molecular Devices fluorometric imaging plate reader (FLIPR), a high-throughput platform for 96-well cell-based assays. Addition of test compounds that are 5-HT2A antagonists, prior to the addition of the agonist (to yield an agonist concentration, EC80, sufficient to cause the cells to generate an 80% maximal fluorescence response in the absence of any antagonist), reduces the amount of fluorescence detected by the FLIPR upon agonist addition. IC50 values are calculated (from compound concentration dependent inhibition of agonist-induced 5-HT2A-dependent fluorescence) by non-linear least squares regression of the data (percent inhibition) onto equation (1) above.
As a reminder, the IC50 is the midpoint of a concentration-inhibition curve. In the case of `O[C@@H](COC1CCCCC1)CN1[C@@H]2CC[C@H]1CN(c1ccc(F)cc1)C2` [Example 290, (R)-1-(cyclohexyloxy)-3-((1R,5S)-3-(4-fluorophenyl)-3,8-diazabicyclo[3.2.1]octan-8-yl)propan-2-ol], the IC50 was 0.002 µM.
In the case of `c1ccc2c(c1)COC21CCN(CC2COc3ccccc32)CC1` (stereo not drawn) [Example 391, 1′-((2,3-dihydrobenzofuran-3-yl)methyl)-3H-spiro[isobenzofuran-1,4′-piperidine]], the IC50 turned out to be 14.1 µM.

The assay is the same for the next values; noted with them: antagonist mode vs EC80 of reference agonist, method A or B, read-out: 5HT2A IC50.
One may read the pIC50 as −log10 of the IC50, conventionally taken in molar units. Regarding `O[C@H](COC1CCCCC1)CN1CCC(Oc2ccccc2)CC1` [Example 233, (S)-1-(cyclohexyloxy)-3-(4-phenoxypiperidin-1-yl)propan-2-ol], the pIC50 was 7.30.
The same measure, in the same setting: in the case of `CC1(C)Oc2ccccc2C1CN1CCC(Oc2ccccc2F)CC1` (stereo not drawn) [Example 133, 1-((2,2-dimethyl-2,3-dihydrobenzofuran-3-yl)methyl)-4-(2-fluorophenoxy)piperidine] it was 6.54; in that of `Fc1ccc(OC2CCCN(CC3Cc4cccnc4C3)CC2)cc1` (stereo not drawn) [Example 273, 6-((4-(4-fluorophenoxy)azepan-1-yl)methyl)-6,7-dihydro-5H-cyclopenta[b]pyridine], 7.70; in that of `Cc1cccc(N2CCN(CC3CCOc4ccccc43)CC2)c1C` (stereo not drawn) [Example 59, 1-(chroman-4-ylmethyl)-4-(2,3-dimethylphenyl)piperazine], 6.10.
Consider `CC(CN1CCc2ccccc2C1=O)N1CC[C@@H](Oc2ccc(F)cc2)C1` (stereo partly drawn) [Example 33, 2-(2-((R)-3-(4-fluorophenoxy)pyrrolidin-1-yl)propyl)-3,4-dihydroisoquinolin-1(2H)-one], for which the pIC50 was under 5.00.
The same measure, in the same setting: then `c1ccc(CCN2C[C@@H]3C[C@H](C2)N(c2ccccc2)C3)cc1` [Example 330, (1S,5R)-3-phenethyl-6-phenyl-3,6-diazabicyclo[3.2.1]octane], with under 4.78; and `c1ccc(CCN2CCC(Oc3ccccc3)CC2)cc1` [Example 214, 1-phenethyl-4-phenoxypiperidine], with 7.40; and `COc1cccc(CN2CCC3(CCN(c4ccccc4)C3)C2)c1` (stereo not drawn) [Example 343, 2-(3-methoxybenzyl)-7-phenyl-2,7-diazaspiro[4.4]nonane], with 5.61.
The same measure, in the same setting: then `Fc1ccc(OC2COCCN(CC3COc4ccccc43)C2)cc1` (stereo not drawn) [Example 278, 4-((2,3-dihydrobenzofuran-3-yl)methyl)-6-(4-fluorophenoxy)-1,4-oxazepane], with under 5.50; and `O=C1c2ccccc2CCN1CCN1CCC[C@H](Oc2ccc(F)cc2)C1` [Example 265, (S)-2-(2-(3-(4-fluorophenoxy)piperidin-1-yl)ethyl)-3,4-dihydroisoquinolin-1(2H)-one], with under 4.88.
Regarding `COc1ccccc1OC1CCN(CC2(C)Cc3ccccc3C2)CC1` [Example 146, 4-(2-methoxyphenoxy)-1-((2-methyl-2,3-dihydro-1H-inden-2-yl)methyl)piperidine], the pIC50 was under 6.00.
Same read-out and setting: in the case of `O[C@H](COC1CCCCC1)CN1C[C@@H]2C[C@H](C1)N(c1ccccc1)C2` [Example 333, (S)-1-(cyclohexyloxy)-3-((1S,5R)-6-phenyl-3,6-diazabicyclo[3.2.1]octan-3-yl)propan-2-ol] it was under 4.78.
For the compound `O[C@H](COC1CCCCC1)CN1CCC[C@H](Oc2ccc(F)cc2)C1` [Example 268, (S)-1-(cyclohexyloxy)-3-((S)-3-(4-fluorophenoxy)piperidin-1-yl)propan-2-ol], the pIC50 was 5.67.
Consider `O[C@H](COC1CCCCC1)CN1C[C@H]2CC[C@@H](C1)N2c1ccccc1` [Example 300, (S)-1-(cyclohexyloxy)-3-((1R,5S)-8-phenyl-3,8-diazabicyclo[3.2.1]octan-3-yl)propan-2-ol], for which the pIC50 was under 5.00.
On the same count and under the same terms, in the case of `OC(COc1ccccc1)CN1C[C@H]2CC[C@@H](C1)N2c1ccccc1` (stereo partly drawn) [Example 302, 1-phenoxy-3-((1R,5S)-8-phenyl-3,8-diazabicyclo[3.2.1]octan-3-yl)propan-2-ol] it was under 5.57; in that of `Fc1ccc(OC2COCCN(CC3Cc4cccnc4C3)C2)cc1` (stereo not drawn) [Example 279, 4-((6,7-dihydro-5H-cyclopenta[b]pyridin-6-yl)methyl)-6-(4-fluorophenoxy)-1,4-oxazepane], under 5.00.
Still for that read-out and setting: then `COc1ccccc1OC1CCN(CC2(C)Cc3cccnc3C2)CC1` (stereo not drawn) [Example 151, 6-((4-(2-methoxyphenoxy)piperidin-1-yl)methyl)-6-methyl-6,7-dihydro-5H-cyclopenta[b]pyridine], with under 5.00; and `COc1ccccc1O[C@H]1CCN(CCN2CCc3ccccc3C2=O)C1` [Example 14, (S)-2-(2-(3-(2-methoxyphenoxy)pyrrolidin-1-yl)ethyl)-3,4-dihydroisoquinolin-1(2H)-one], with 5.13.
Still for that read-out and setting: in the case of `COc1ccccc1O[C@H]1CCN(CCN2CCc3ccccc3C2=O)[C@H]1C` [Example 19, 2-(2-((2S,3S)-3-(2-methoxyphenoxy)-2-methylpyrrolidin-1-yl)ethyl)-3,4-dihydroisoquinolin-1(2H)-one] it was 6.25.
Consider `COc1ccc2c(c1)C(CN1C[C@H]3CC[C@@H](C1)N3c1ccccc1)CC2` (stereo partly drawn) [Example 296, (1R,5S)-3-((6-methoxy-2,3-dihydro-1H-inden-1-yl)methyl)-8-phenyl-3,8-diazabicyclo[3.2.1]octane], for which the pIC50 was under 5.00.
For `N#Cc1ccc(OC2CCN(CC3Cc4cccnc4C3)CC2)cc1` (stereo not drawn) [Example 156, 4-((1-((6,7-dihydro-5H-cyclopenta[b]pyridin-6-yl)methyl)piperidin-4-yl)oxy) benzonitrile], the pIC50 is 5.70.
On the same count and under the same terms, then `Fc1ccc(O[C@H]2CCCN(CCC3CCOc4ccccc43)C2)cc1` (stereo partly drawn) [Example 263, (3S)-1-(2-(chroman-4-yl)ethyl)-3-(4-fluorophenoxy)piperidine], with under 4.89; and `c1ccc(N2[C@@H]3C[C@H]2CN(CC2CCc4ccccc42)C3)cc1` (stereo partly drawn) [Example 293, (1R,5S)-3-((2,3-dihydro-1H-inden-1-yl)methyl)-6-phenyl-3,6-diazabicyclo[3.1.1]heptane], with 5.99; and `O[C@@H](CO[C@@H]1CCCc2ccccc21)CN1CCN(Cc2ccccc2)CC1` [Example 84, (R)-1-(4-benzylpiperazin-1-yl)-3-(((R)-1,2,3,4-tetrahydronaphthalen-1-yl)oxy)propan-2-ol], with under 4.78.
Still for that read-out and setting: in the case of `COc1cccc(O[C@@H]2CCN(CCN3CCc4ccccc4C3=O)C2)c1` [Example 21, (R)-2-(2-(3-(3-methoxyphenoxy)pyrrolidin-1-yl)ethyl)-3,4-dihydroisoquinolin-1(2H)-one] it was 5.59; in that of `C[C@@H]1C[C@]2(CCc3ccccc3O2)CCN1CCN1CCc2ccccc2C1=O` [Example 423, 2-(2-((2S,2′R)-2′-methylspiro[chromane-2,4′-piperidin]-1′-yl)ethyl)-3,4-dihydroisoquinolin-1(2H)-one], 5.55.
Still for that read-out and setting: then `c1ccc(CN2CCC3(CCc4ccccc4O3)CC2)cc1` [Example 415, 1′-benzylspiro[chromane-2,4′-piperidine]], with 5.67; and `c1ccc2c(c1)CCC1(CCN(CC3CCc4ncccc43)CC1)O2` (stereo not drawn) [Example 407, 1′-((6,7-dihydro-5H-cyclopenta[b]pyridin-5-yl)methyl)spiro[chromane-2,4′-piperidine]], with 5.44.

These data come from patent publication US11186564B2, “Dual NAV1.2/5HT2a inhibitors for treating CNS disorders” (Sunovion Pharmaceuticals Inc., priority 2016, dated 2021).
